Data published in patent publication US5364848A, “Substituted cephalosporin sulfones as anti-inflammatory and antidegenerative agents” (Merck & Co., Inc., priority 1992, dated 1994).

Target: T1, Human Polymorphonuclear Leukocyte Elastase (Homo sapiens, UniProt P08246)
T1 sequence (P08246 30-247 limits assumed): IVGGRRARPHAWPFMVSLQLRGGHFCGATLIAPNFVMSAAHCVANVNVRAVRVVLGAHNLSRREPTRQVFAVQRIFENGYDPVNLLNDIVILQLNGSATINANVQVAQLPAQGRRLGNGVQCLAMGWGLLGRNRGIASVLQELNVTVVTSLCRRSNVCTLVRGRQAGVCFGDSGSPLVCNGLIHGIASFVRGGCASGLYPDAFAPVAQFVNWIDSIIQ
Assay: biochemical
Conditions: not given
Procedure: Protocol--Enzyme Assays for the Inhibition of Human Polymorphonuclear Leukocyte Elastase Via Hydrolysis of N-t-Boc-alanyl-alanyl-prolylalanine-p-nitroanilide Reagents:
0.05M TES (N-tris[hydroxymethyl]methyl-2-amino-ethanesulfonic acid) Buffer, pH 7.5.
0.2 mMN-t-Boc-alanyl -alanyl -prolyl-alanine-p-nitroanilide (Boc-AAPAN).
To prepare substrate, the solid (m.w. 550) was first dissolved in 10.0 ml DMSO. Buffer at pH 7.5 was then added to a final volume of 100 ml.
Crude extract of human polymorphonuclear leukocytes (PMN) containing elastase activity.
Inhibitors (cephalosporin sulfone esters) to be tested dissolved in DMSO just before use.
To 1.0 ml of 0.2 mM Boc-AAPAN in a cuvette, 0.01-0.1 ml of DMSO with or without inhibitor was added. After mixing, a measurement was taken at 410 mμ to detect any spontaneous hydrolysis due to presence of test compound. 0.05 Milliliters of PMN extract was then added and the ΔOD/min at 410 mμ was measured and recorded. Beckman model 35 spectrophotometer was used.
The elastase activity in the crude PMN extract may vary from one preparation to another. A control of each new batch is run, and the volume added in the assay procedure is adjusted according to activity.

Compound	IC50
COC1C(=O)N2C(C(=O)OC(C)(C)C)=C(CSc3nccn3C)CS(=O)(=O)C12 (stereo not drawn) [R1=OCH3, M=drawing 41, B=OtBu, Q=H]	2.33 µM
COC1C(=O)N2C(C(=O)OC(C)(C)C)=C(CSc3nnc(C)s3)CS(=O)(=O)C12 (stereo not drawn) [R1=OCH3, M=drawing 42, B=OtBu, Q=H]	2.23 µM

Same assay, conditions: Table II; 50% inhibition of the enzyme activity 2 minutes after zero time; crude PMN extract, pH 7.5, 0.2 mM Boc-AAPAN; read-out: ED50 (the source's name) (converted)

IC50	Compound
0.198 µM	COC1C(=O)N2C(C(=O)OC(C)(C)C)=C(COC(=O)CN(C)C(=O)OC(C)(C)C)CS(=O)(=O)C12 (stereo not drawn) [R1=OCH3, M=drawing 38, B=OtBu, Q=H]
2.16 µM	COC1C(=O)N2C(C(=O)OC(C)(C)C)=C(CSc3nc[nH]n3)CS(=O)(=O)C12 (stereo not drawn) [R1=OCH3, M=drawing 39, B=OtBu, Q=H]
1.6 µM	CCOC(=S)SCC1=C(C(=O)OC(C)(C)C)N2C(=O)C(OC)C2S(=O)(=O)C1 (stereo not drawn) [R1=OCH3, M=drawing 40, B=OtBu, Q=H]
6.22 µM	COC1C(=O)N2C(C(=O)OC(C)(C)C)=C(CSc3nc4ccccc4s3)CS(=O)(=O)C12 (stereo not drawn) [R1=OCH3, M=drawing 43, B=OtBu, Q=H]
1.44 µM	COC1C(=O)N2C(C(=O)OC(C)(C)C)=C(CSc3cn[nH]n3)CS(=O)(=O)C12 (stereo not drawn) [R1=OCH3, M=drawing 44, B=OtBu, Q=H]
1.39 µM	COC1C(=O)N2C(C(=O)OC(C)(C)C)=C(CSc3nnnn3C)CS(=O)(=O)C12 (stereo not drawn) [R1=OCH3, M=drawing 45, B=OtBu, Q=H]
0.914 µM	CC(=O)OCC1=C(C(=O)OCc2ccccc2)N2C(=O)C(OC(C)=O)C2S(=O)(=O)C1 (stereo not drawn) [R1=OCOCH3, M=CH2OCOCH3, B=OCH2.phi., Q=H]
0.385 µM	CC(=O)OCC1=C(C(=O)OC(C)(C)C)N2C(=O)C(OC=O)C2S(=O)(=O)C1 (stereo not drawn) [R1=drawing 36, M=CH2OCOCH3, B=OtBu, Q=H]
0.288 µM	COC(=O)C1=C(COC(C)=O)CS(=O)(=O)C2C(OC=O)C(=O)N12 (stereo not drawn) [R1=drawing 37, M=CH2OCOCH3, B=OCH3, Q=H]
0.0603 µM	CO[C@H]1C(=O)N2C(C(=O)OC(C)(C)C)=C(COC(C)=O)C(CSc3ccccc3)S(=O)(=O)[C@H]12 (stereo partly drawn) [t-Butyl 3-acetyloxymethyl-7α-methoxy-4-phenylthiomethyl-8-oxo-5-thia-1-azabicyclo[4.2.0]oct-2-ene-2-carboxylate-5,5-dioxide]

Tested on: PG synthesis
Assay: not given
Conditions: background statement; cited from earlier work

Compound	inhibition of PG synthesis
COc1ccc2c(c1)c(CC(=O)O)c(C)n2C(=O)c1ccc(Cl)cc1 [indomethacin]	inhibited
CCCCC1C(=O)N(c2ccccc2)N(c2ccccc2)C1=O [phenylbutazone]	inhibited

Tested on: elastase both from the pancreas and the PMN
Assay: not given
Conditions: background statement; cited from earlier work

Compound	inhibitory spectrum
α1 -Antitrypsin: a glycoprotein contained in human serum that has a wide inhibitory spectrum	wide inhibitory spectrum covering, among other enzymes, elastase both from the pancreas and the PMN
